We go through 2 molecules from ChEMBL document CHEMBL1134625 (J Med Chem, 2001).

Structures are written as SMILES.

What is called IC50 is the midpoint of a concentration-inhibition curve.

Targets include Histamine H2 receptor (Homo sapiens, UniProt P25021); D(1A) dopamine receptor (Homo sapiens, UniProt P21728); Substance-P receptor (Homo sapiens, UniProt P25103); Substance-K receptor (Homo sapiens, UniProt P21452); D(2) dopamine receptor (Homo sapiens, UniProt P14416); Histamine H1 receptor (Homo sapiens, UniProt P35367); D(3) dopamine receptor (Homo sapiens, UniProt P35462); D(1B) dopamine receptor (Homo sapiens, UniProt P21918); Adenosine receptor A1 (Homo sapiens, UniProt P30542); Translocator protein (Homo sapiens, UniProt P30536); Vasopressin V1a receptor (Homo sapiens, UniProt P37288).

The target of assay [1] is 5-hydroxytryptamine receptor 6 (Homo sapiens, UniProt P50406).
Assay [2] has as its target 5-hydroxytryptamine receptor 7 (Homo sapiens, UniProt P34969).
The target in assay [3] is T1, 5-hydroxytryptamine receptor 2C (Homo sapiens, UniProt P28335).
T1 sequence (P28335 whole entry): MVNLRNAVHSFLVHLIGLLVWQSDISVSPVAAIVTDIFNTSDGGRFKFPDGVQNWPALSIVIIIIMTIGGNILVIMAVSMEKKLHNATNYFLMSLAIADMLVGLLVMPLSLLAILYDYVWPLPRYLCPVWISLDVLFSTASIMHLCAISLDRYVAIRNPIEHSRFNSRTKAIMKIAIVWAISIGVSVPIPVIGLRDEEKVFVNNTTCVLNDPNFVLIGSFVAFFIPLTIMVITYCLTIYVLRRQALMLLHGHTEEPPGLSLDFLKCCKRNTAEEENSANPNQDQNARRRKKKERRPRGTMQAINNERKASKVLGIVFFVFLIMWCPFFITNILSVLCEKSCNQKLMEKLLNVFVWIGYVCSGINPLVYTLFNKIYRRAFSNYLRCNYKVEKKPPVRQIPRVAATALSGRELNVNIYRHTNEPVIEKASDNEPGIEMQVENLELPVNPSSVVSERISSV

In assay [4] the target is T2, Adrenergic receptor alpha-1 (Homo sapiens, UniProt P35348+P25100+P35368).
T2 sequence (P35348 whole entry): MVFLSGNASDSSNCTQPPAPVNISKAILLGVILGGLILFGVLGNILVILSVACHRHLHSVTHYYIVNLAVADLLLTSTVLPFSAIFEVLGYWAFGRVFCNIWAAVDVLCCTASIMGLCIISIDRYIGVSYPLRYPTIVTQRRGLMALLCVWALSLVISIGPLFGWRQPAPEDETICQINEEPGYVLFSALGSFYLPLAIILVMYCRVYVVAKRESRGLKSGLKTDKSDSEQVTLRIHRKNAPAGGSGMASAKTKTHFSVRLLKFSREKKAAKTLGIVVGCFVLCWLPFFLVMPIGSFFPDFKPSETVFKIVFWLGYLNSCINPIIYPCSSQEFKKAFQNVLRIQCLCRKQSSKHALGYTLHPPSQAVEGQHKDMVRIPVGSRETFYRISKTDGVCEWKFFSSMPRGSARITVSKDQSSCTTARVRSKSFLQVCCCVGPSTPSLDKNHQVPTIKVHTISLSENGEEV
T2 sequence (P25100 whole entry): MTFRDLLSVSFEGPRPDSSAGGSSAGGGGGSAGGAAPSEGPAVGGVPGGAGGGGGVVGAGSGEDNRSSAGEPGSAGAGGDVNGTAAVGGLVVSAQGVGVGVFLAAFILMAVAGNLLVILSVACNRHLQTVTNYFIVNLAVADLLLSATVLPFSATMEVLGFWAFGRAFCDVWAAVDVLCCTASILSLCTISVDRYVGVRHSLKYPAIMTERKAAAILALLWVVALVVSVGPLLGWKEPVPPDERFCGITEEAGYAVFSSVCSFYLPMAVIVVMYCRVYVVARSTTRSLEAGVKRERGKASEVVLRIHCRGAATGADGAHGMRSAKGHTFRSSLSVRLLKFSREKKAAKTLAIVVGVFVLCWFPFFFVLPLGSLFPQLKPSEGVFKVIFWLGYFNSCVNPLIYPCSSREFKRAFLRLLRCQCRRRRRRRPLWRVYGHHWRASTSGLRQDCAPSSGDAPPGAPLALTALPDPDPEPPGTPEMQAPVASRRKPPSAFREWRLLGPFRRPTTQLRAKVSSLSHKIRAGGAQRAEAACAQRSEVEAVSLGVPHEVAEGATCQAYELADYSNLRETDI
T2 sequence (P35368 whole entry): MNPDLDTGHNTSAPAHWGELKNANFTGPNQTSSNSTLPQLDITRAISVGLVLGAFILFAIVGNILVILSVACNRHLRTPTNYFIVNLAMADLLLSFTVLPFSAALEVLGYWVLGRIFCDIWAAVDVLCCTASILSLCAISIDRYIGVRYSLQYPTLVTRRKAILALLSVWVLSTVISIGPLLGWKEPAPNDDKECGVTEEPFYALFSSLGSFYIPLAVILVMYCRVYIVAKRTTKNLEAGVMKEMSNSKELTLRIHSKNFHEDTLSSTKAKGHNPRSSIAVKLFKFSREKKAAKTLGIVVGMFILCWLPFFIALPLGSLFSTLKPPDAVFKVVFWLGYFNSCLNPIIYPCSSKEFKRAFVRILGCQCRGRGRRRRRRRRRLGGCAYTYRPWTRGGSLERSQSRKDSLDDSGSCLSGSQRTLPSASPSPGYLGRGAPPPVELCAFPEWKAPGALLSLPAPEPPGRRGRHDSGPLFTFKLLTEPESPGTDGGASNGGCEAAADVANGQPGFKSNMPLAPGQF
The assay is classed as protein assay.

The target in another assay is T3, Adenosine receptor A3 (Homo sapiens, UniProt P0DMS8).
T3 sequence (P0DMS8 whole entry): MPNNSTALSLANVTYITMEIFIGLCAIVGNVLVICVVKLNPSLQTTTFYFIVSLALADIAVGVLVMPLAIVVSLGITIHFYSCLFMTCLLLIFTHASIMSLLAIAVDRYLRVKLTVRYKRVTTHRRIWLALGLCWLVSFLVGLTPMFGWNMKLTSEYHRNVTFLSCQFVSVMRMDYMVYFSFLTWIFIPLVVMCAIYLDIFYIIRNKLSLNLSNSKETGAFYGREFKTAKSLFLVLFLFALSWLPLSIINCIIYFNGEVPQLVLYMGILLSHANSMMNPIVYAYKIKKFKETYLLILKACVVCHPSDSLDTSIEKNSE

Assay [5] addresses Sodium-dependent dopamine transporter (Homo sapiens, UniProt Q01959).
Assay [6] has as its target 5-hydroxytryptamine receptor 2A (Homo sapiens, UniProt P28223).
The target in assay [7] is Voltage-gated L-type calcium channel (Homo sapiens, UniProt Q13936+Q13698+Q01668+O60840). The assay is classed as protein assay.
For assay [8], the target named is 5-hydroxytryptamine receptor 1B (Homo sapiens, UniProt P28222).
For assay [9], the target named is Sodium-dependent noradrenaline transporter (Homo sapiens, UniProt P23975).
In assay [10] the target is T4, 5-hydroxytryptamine receptor 1A (Homo sapiens, UniProt P08908).
T4 sequence (P08908 whole entry): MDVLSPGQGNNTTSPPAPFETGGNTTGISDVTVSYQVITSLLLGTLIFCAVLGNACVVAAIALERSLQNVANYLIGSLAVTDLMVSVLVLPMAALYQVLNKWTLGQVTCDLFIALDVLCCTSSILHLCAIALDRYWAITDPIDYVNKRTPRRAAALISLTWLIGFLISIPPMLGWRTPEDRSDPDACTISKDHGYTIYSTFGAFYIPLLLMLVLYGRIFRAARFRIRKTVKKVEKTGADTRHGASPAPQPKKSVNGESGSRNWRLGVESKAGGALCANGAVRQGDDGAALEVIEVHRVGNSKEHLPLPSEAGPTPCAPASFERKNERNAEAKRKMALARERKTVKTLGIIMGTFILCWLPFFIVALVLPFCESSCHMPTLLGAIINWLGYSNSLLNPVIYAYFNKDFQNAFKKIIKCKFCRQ

Assay [11] has as its target Melatonin receptor type 1A (Homo sapiens, UniProt P48039).

Sequence of Substance-K receptor (P21452 whole entry): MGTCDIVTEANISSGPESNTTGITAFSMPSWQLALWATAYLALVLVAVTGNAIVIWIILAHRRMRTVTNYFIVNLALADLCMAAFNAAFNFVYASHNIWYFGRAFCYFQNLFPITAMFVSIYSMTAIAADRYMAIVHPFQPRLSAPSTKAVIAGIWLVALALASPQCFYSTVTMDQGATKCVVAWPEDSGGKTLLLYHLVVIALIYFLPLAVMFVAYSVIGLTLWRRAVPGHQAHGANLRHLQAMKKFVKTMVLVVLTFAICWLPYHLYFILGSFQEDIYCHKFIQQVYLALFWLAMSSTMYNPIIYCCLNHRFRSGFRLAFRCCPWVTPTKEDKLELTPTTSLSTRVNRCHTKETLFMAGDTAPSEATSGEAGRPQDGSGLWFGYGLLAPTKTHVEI
Sequence of D(1A) dopamine receptor (P21728 whole entry): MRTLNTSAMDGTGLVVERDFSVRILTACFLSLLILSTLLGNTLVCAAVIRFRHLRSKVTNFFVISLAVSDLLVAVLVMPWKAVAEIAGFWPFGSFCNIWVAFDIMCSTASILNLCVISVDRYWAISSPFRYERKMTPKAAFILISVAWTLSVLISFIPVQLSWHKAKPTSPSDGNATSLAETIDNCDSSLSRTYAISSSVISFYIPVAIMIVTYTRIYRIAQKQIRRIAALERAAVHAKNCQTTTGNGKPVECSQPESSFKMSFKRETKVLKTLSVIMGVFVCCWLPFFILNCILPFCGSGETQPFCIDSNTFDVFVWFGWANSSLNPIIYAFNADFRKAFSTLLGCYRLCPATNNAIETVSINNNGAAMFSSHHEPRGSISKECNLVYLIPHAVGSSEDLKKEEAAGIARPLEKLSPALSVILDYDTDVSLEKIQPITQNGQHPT
Sequence of D(1B) dopamine receptor (P21918 whole entry): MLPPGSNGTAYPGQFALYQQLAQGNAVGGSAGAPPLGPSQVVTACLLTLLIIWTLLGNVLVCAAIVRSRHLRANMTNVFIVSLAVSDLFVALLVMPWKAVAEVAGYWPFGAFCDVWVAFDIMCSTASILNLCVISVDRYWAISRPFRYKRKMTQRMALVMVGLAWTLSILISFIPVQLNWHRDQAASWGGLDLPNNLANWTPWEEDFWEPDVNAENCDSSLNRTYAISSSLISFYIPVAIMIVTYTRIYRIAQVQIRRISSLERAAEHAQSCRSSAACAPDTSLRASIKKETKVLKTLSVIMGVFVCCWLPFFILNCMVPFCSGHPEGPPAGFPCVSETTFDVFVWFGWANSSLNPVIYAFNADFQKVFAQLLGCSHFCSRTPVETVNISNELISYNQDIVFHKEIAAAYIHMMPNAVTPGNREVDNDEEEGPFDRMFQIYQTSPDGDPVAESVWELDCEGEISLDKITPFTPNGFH
Sequence of Melatonin receptor type 1A (P48039 whole entry): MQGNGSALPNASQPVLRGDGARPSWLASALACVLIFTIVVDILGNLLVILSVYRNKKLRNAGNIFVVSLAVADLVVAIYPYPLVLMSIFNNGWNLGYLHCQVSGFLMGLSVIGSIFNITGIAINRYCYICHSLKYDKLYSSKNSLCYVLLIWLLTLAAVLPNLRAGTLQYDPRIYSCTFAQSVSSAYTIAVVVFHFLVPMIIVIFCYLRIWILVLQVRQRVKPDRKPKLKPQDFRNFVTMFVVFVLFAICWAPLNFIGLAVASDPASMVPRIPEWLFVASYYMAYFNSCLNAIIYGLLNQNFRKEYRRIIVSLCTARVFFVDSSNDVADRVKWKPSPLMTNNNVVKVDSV
Sequence of Substance-P receptor (P25103 whole entry): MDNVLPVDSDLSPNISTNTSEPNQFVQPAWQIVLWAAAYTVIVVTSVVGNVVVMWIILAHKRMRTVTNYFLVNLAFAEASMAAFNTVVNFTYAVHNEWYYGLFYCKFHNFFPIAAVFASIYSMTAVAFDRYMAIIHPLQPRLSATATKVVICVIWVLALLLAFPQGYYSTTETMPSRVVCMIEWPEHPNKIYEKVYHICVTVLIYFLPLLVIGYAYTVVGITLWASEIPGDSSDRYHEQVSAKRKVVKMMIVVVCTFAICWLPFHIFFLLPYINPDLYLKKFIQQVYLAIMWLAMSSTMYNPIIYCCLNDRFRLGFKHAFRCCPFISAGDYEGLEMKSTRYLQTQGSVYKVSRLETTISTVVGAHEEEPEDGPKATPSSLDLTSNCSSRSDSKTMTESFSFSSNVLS
Sequence of D(2) dopamine receptor (P14416 whole entry): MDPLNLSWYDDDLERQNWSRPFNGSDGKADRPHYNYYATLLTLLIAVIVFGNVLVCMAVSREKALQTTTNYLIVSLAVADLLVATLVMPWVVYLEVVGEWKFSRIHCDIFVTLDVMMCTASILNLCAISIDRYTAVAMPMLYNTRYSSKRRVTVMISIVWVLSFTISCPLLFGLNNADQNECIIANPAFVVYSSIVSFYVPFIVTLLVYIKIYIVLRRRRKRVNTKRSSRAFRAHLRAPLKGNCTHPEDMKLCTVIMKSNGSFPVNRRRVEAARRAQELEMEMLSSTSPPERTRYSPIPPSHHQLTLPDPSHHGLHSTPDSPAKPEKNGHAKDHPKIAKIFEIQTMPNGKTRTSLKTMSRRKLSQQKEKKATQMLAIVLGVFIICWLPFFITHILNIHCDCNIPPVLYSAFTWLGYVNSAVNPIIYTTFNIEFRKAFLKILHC
Sequence of 5-hydroxytryptamine receptor 6 (P50406 whole entry): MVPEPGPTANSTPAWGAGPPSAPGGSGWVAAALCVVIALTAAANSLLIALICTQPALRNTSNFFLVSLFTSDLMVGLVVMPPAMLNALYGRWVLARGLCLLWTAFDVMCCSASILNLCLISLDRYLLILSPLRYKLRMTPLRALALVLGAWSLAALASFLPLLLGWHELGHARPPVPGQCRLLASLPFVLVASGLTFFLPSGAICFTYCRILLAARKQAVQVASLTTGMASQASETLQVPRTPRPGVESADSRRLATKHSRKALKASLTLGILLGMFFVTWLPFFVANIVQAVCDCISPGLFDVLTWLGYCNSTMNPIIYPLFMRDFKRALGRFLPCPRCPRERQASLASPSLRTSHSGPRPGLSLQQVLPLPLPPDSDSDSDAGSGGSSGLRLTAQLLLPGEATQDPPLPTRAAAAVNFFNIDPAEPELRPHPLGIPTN
Sequence of Sodium-dependent dopamine transporter (Q01959 whole entry): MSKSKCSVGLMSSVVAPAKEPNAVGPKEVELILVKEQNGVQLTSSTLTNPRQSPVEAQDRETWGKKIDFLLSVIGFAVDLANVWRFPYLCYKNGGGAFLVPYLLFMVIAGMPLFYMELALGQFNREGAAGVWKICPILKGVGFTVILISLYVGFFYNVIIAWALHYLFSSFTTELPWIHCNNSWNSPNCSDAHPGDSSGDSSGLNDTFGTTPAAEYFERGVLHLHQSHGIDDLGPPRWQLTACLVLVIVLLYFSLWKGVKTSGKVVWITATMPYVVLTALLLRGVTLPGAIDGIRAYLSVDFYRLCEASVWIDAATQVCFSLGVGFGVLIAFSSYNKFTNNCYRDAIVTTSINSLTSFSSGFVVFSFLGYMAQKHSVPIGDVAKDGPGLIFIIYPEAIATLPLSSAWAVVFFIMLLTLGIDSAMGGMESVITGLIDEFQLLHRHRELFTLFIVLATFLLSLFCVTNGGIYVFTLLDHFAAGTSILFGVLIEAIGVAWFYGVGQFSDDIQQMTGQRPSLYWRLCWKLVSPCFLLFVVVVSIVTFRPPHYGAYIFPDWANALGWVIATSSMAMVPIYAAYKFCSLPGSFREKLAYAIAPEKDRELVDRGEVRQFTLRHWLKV
Sequence of 5-hydroxytryptamine receptor 1B (P28222 whole entry): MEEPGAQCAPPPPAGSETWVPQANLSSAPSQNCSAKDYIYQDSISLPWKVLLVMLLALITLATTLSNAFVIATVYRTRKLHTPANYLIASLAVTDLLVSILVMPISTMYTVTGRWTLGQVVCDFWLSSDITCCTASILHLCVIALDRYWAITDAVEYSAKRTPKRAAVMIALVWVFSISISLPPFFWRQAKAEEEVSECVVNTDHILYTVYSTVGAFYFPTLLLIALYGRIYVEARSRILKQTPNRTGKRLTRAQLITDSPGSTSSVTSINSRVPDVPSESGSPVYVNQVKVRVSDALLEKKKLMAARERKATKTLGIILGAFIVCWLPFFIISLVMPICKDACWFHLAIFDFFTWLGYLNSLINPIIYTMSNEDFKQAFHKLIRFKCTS
Sequence of Translocator protein (P30536 whole entry): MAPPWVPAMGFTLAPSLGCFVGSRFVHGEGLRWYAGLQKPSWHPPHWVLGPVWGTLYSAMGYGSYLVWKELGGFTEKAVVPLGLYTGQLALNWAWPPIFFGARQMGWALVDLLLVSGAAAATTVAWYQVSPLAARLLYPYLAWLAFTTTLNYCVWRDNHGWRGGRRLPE
Sequence of Adenosine receptor A1 (P30542 whole entry): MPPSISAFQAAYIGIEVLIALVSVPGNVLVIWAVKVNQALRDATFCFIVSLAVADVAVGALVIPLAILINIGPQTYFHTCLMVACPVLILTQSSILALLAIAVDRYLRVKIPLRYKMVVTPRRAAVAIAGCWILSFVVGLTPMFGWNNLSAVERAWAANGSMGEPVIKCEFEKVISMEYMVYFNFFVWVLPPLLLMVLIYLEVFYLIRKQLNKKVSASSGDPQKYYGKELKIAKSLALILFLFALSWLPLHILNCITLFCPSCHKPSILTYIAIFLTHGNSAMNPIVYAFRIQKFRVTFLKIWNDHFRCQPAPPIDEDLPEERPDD
Sequence of Vasopressin V1a receptor (P37288 whole entry): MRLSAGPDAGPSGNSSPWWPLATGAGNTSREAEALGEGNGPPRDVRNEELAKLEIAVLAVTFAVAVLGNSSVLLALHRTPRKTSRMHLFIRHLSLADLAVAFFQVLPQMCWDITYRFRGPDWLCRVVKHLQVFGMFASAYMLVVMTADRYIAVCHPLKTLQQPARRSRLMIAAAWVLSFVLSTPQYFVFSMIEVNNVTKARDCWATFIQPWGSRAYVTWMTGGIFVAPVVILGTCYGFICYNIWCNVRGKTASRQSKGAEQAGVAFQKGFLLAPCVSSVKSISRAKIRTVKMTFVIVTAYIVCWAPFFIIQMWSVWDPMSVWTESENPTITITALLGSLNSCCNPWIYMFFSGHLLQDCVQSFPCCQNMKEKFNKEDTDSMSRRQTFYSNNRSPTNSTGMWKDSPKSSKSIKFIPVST

Consider `CCOc1ccc(CCNC(=O)N2CCN(CCCC(c3ccc(F)cc3)c3ccc(F)cc3)CC2)cc1`, for which the 50% inhibitory concentration (IC50) in assay [1] is 800 nM; in assay [2], 2040 nM; against Histamine H2 receptor, 757 nM; in assay [3], 1420 nM; in assay [4], 993 nM; on Adenosine receptor A3, 2460 nM. For the same molecule, the IC50 in assay [5] was 994 nM; at D(1A) dopamine receptor it was 967 nM; against Substance-P receptor it was 839 nM; against Substance-K receptor it was 5180 nM; at D(2) dopamine receptor, 2890 nM; against Histamine H1 receptor, 1820 nM. Moreover, the IC50 was 341 nM against D(3) dopamine receptor, 1450 nM against D(1B) dopamine receptor, 231 nM in [6] and 860 nM in assay [7].

As for `O=C(OCc1cc2c(cc1Cl)OCO2)N1CCC(n2c(O)nc3ccccc32)CC1`, the IC50 came to 2640 nM on Adenosine receptor A1; 708 nM in [8]; 1340 nM in [4]; 3020 nM in assay [9]; 4650 nM in assay [10]; 1780 nM on Adenosine receptor A3. Besides, the half-maximal inhibitory concentration (IC50) on D(1A) dopamine receptor amounted to 7580 nM; on Translocator protein, 1040 nM; on Substance-K receptor it was 4420 nM; on D(1B) dopamine receptor, 4890 nM; in assay [11] it was 1740 nM; on Vasopressin V1a receptor, 2220 nM.
